Results from patent publication US20240091149A1, “COMPOSITIONS AND METHODS FOR IMPROVING GASTROINTESTINAL ABSORPTION OF ELECTROLYTES” (IGH NATURALS, INC., priority 2020, published 2024).

Tested on: HT-29-MTX intestinal cells
Assay: IL-10 secretion by intestinal cells
Format: cell-based
Conditions: cells treated with cisplatin alone; FIG. 3
From the text: IL-10 secretion peaked between 24-48 hrs and preceded mucin secretion (72-96 hr).

N.N.[Cl][Pt][Cl] [cisplatin]
IL-10 secretion: secreted more IL-10
